# Experiments:
# Mus musculus [1] = assay: Tested in vivo for immunosuppressive activity in mouse using allogenic skin grafting technique(SG); weight at a dose of 1.5 mg/kg; type: functional
# Mus musculus [2] = assay: Tested in vivo for immunosuppressive activity in mouse using allogenic skin grafting technique(SG); weight lost at a dose of 0.15 mg/kg; type: functional
# Mus musculus [3] = assay: Tested in vivo for immunosuppressive activity in mouse using allogenic skin grafting technique(SG); weight lost at a dose of 1.5 mg/kg on day 5; type: functional
# Mus musculus [4] = assay: Tested in vivo for immunosuppressive activity in mouse using graft vs Host rejection technique(GVHR); body weight at a dose of 0.15 mg/kg; type: functional
# Mus musculus [5] = assay: Tested in vivo for immunosuppressive activity in mouse using graft vs Host rejection technique(GVHR); % suppression at a dose of 15.0 mg/kg; type: functional
# Mus musculus [6] = assay: Tested in vivo for immunosuppressive activity in mouse using graft vs Host rejection technique(GVHR);% suppression at a dose of 1.5 mg/kg; type: functional
# Mus musculus [7] = assay: Tested in vivo for immunosuppressive activity in mouse using graft vs Host rejection technique(GVHR); body weight at a dose of 1.5 mg/kg; type: functional
# Mus musculus [8] = assay: Tested in vivo for immunosuppressive activity in mouse using graft vs Host rejection technique(GVHR); body weight at a dose of 15.0 mg/kg; type: functional
# Mus musculus [9] = assay: Tested in vivo for immunosuppressive activity in mouse using graft vs Host rejection technique(GVHR); weight at a dose of 15 mg/kg; type: functional
# Mus musculus [10] = species on record: Mus musculus; assay: Tested for immunosuppressive activity in mouse using allogenic MLR method; type: functional, organism-based
# Mus musculus [11] = assay: Tested in vivo for immunosuppressive activity in mouse using allogenic skin grafting technique(SG); mean graft survival at a dose of 15 mg/kg; type: functional
# Mus musculus [12] = assay: Tested in vivo for immunosuppressive activity in mouse using graft vs Host rejection technique(GVHR); spleen index at a dose of 0.15 mg/kg; type: functional
# Mus musculus [13] = assay: Tested in vivo for immunosuppressive activity in mouse using graft vs Host rejection technique(GVHR); spleen index at a dose of 1.5 mg/kg; type: functional
# Mus musculus [14] = assay: Tested in vivo for immunosuppressive activity in mouse using graft vs Host rejection technique(GVHR); spleen index at a dose of 15.0 mg/kg; type: functional
# Mus musculus [15] = assay: Tested in vivo for immunosuppressive activity in mouse using graft vs Host rejection technique(GVHR); spleen weight normalized to D8 body weight at a dose of 0.15 mg/kg; type: functional
# Mus musculus [16] = assay: Tested in vivo for immunosuppressive activity in mouse using graft vs Host rejection technique(GVHR); spleen weight normalized to D8 body weight at a dose of 1.5 mg/kg; type: functional
# Mus musculus [17] = assay: Tested in vivo for immunosuppressive activity in mouse using graft vs Host rejection technique(GVHR); spleen weight normalized to D8 body weight at a dose of 15.0 mg/kg; type: functional
# Mus musculus [18] = assay: Tested in vivo for immunosuppressive activity in mouse using allogenic skin grafting technique(SG); mean graft survival at a dose of 0.15 mg/kg; type: functional
# Mus musculus [19] = assay: Tested in vivo for immunosuppressive activity in mouse using allogenic skin grafting technique(SG); mean graft survival at a dose of 1.5 mg/kg; type: functional
# Mus musculus [20] = assay: Tested in vivo for immunosuppressive activity in mouse using allogenic skin grafting technique(SG); graft survival relative to cyclophosphamide at a dose of 1.5 mg/kg; type: functional
# Mus musculus [21] = assay: Tested in vivo for immunosuppressive activity in mouse using graft vs Host rejection technique(GVHR); weight change at a dose of 15.0 mg/kg on day 5; type: functional
# Mus musculus [22] = assay: Tested in vivo for immunosuppressive activity in mouse using graft vs Host rejection technique(GVHR); weight change at a dose of 1.5 mg/kg on day 5; type: functional
# Mus musculus [23] = assay: Tested in vivo for immunosuppressive activity in mouse using allogenic skin grafting technique(SG); graft survival relative to cyclophosphamide at a dose of 0.15 mg/kg; type: functional
# [24] = Non-cytotoxic IMS activity (ratio LcV/MLR) was determined; type: functional
# [25] = Tested in vitro for cytotoxicity against […](LcV) in cells; type: functional
# Mus musculus [26] = assay: Tested in vivo for immunosuppressive activity in mouse using allogenic skin grafting technique(SG); weight at a dose of 0.15 mg/kg; type: functional
# Mus musculus [27] = assay: Tested in vivo for immunosuppressive activity in mouse using graft vs Host rejection technique(GVHR); weight change at a dose of 0.15 mg/kg on day 5; type: functional
# Mus musculus [28] = assay: Tested in vivo for immunosuppressive activity in mouse using graft vs. Host rejection technique(GVHR); % suppression at a dose of 15 mg/kg; type: functional
# Mus musculus [29] = assay: Tested in vivo for immunosuppressive activity in mouse using graft vs. Host rejection technique(GVHR); body weight at a dose of 0.15 mg/kg; type: functional
# Mus musculus [30] = assay: Tested in vivo for immunosuppressive activity in mouse using allogenic skin grafting technique(SG); weight at a dose of 15 mg/kg; type: functional
# Mus musculus [31] = assay: Tested in vivo for immunosuppressive activity in mouse using allogenic skin grafting technique(SG); weight lost at a dose of 1.5 mg/kg; type: functional
# Mus musculus [32] = assay: Tested in vivo for immunosuppressive activity in mouse using graft vs. Host rejection technique(GVHR); body weight at a dose of 1.5 mg/kg; type: functional
# Mus musculus [33] = assay: Tested in vivo for immunosuppressive activity in mouse using graft vs. Host rejection technique(GVHR); body weight at a dose of 15.0 mg/kg; type: functional
# Mus musculus [34] = assay: Tested in vivo for immunosuppressive activity in mouse using graft vs. Host rejection technique(GVHR); % suppression at a dose of 0.15 mg/kg; type: functional
# Mus musculus [35] = assay: Tested in vivo for immunosuppressive activity in mouse using graft vs. Host rejection technique(GVHR); % suppression at a dose of 1.5 mg/kg; type: functional
# Mus musculus [36] = assay: Tested in vivo for immunosuppressive activity in mouse using graft vs. Host rejection technique(GVHR); % suppression at a dose of 15.0 mg/kg; type: functional
# Mus musculus [37] = assay: Tested in vivo for immunosuppressive activity in mouse using allogenic skin grafting technique(SG); graft survival relative to cyclophosphamide at a dose of 15.0 mg/kg; type: functional
# Mus musculus [38] = assay: Tested in vivo for immunosuppressive activity in mouse using graft vs. Host rejection technique(GVHR); spleen index at a dose of 0.15 mg/kg; type: functional
# Mus musculus [39] = assay: Tested in vivo for immunosuppressive activity in mouse using graft vs. Host rejection technique(GVHR); spleen index at a dose of 1.5 mg/kg; type: functional
# Mus musculus [40] = assay: Tested in vivo for immunosuppressive activity in mouse using graft vs. Host rejection technique(GVHR); spleen index at a dose of 15.0 mg/kg; type: functional
# Mus musculus [41] = assay: Tested in vivo for immunosuppressive activity in mouse using graft vs. Host rejection technique(GVHR); spleen weight normalized to D8 body weight at a dose of 0.15 mg/kg; type: functional
# Mus musculus [42] = assay: Tested in vivo for immunosuppressive activity in mouse using graft vs. Host rejection technique(GVHR); spleen weight normalized to D8 body weight at a dose of 1.5 mg/kg; type: functional
# Mus musculus [43] = assay: Tested in vivo for immunosuppressive activity in mouse using graft vs. Host rejection technique(GVHR); spleen weight normalized to D8 body weight at a dose of 15.0 mg/kg; type: functional
# Mus musculus [44] = assay: Tested in vivo for immunosuppressive activity in mouse using allogenic skin grafting technique(SG); mean graft survival at a dose of 15.0 mg/kg; type: functional
# Mus musculus [45] = assay: Tested in vivo for immunosuppressive activity in mouse using graft vs. Host rejection technique(GVHR); weight change at a dose of 0.15 mg/kg; type: functional
# Mus musculus [46] = assay: Tested in vivo for immunosuppressive activity in mouse using graft vs. Host rejection technique(GVHR); weight change at a dose of 1.5 mg/kg; type: functional
# Mus musculus [47] = assay: Tested in vivo for immunosuppressive activity in mouse using graft vs. Host rejection technique(GVHR); weight change at a dose of 15.0 mg/kg; type: functional
# Mus musculus [48] = assay: Tested in vivo for immunosuppressive activity in mouse using allogenic skin grafting technique(SG); mean graft survival at a dose of 25.0 mg/kg; type: functional
# Mus musculus [49] = assay: Tested in vivo for immunosuppressive activity in mouse using graft vs. Host rejection technique(GVHR); weight change at a dose of 25.0 mg/kg; type: functional
# Mus musculus [50] = assay: Tested in vivo for immunosuppressive activity in mouse using allogenic skin grafting technique(SG); graft survival relative to cyclophosphamide at a dose of 25.0 mg/kg; type: functional
compound,measurement,setting,value
COc1cc([C@@H]2c3cc4c(cc3C3=NOC[C@H]3[C@@H]2C(=O)O)OCO4)cc(OC)c1OC,Body weight,Mus musculus [1],18.7 g
same,Body weight,Mus musculus [2],0.5 g
same,Body weight,Mus musculus [3],1.7 g
same,Body weight,Mus musculus [4],15.8 g
same,Activity,Mus musculus [5],148%
same,Activity,Mus musculus [6],48%
same,Body weight,Mus musculus [7],16 g
same,Body weight,Mus musculus [8],16.5 g
same,Body weight,Mus musculus [9],17.8 g
same,IC50,Mus musculus [10],< 9 ng/mL
same,Mean graft survival,Mus musculus [11],0.9 days
same,SI,Mus musculus [12],1.14
same,SI,Mus musculus [13],0.87
same,SI,Mus musculus [14],1.27
same,Spleen weight,Mus musculus [15],5.7 g
same,Spleen weight,Mus musculus [16],4.35 g
same,Spleen weight,Mus musculus [17],6.34 g
same,Mean graft survival,Mus musculus [18],11.2 days
same,Mean graft survival,Mus musculus [19],6.8 days
same,graft survival,Mus musculus [20],0.69 days
same,Weight change,Mus musculus [21],1.8%
same,Weight change,Mus musculus [22],0%
same,graft survival,Mus musculus [23],1.14 days
same,Ratio,[24],>3333
same,Cytotoxicity,[25],>30 µg/mL
same,Body weight,Mus musculus [26],19 g
same,Weight change,Mus musculus [27],3.1%
COc1cc([C@H]2C3=C(COC3=O)Cc3cc(OC(C)=O)c(OC(C)=O)cc32)cc(OC)c1OC,IC50,Mus musculus [10],366 ng/mL
same,Ratio,[24],>78
same,Cytotoxicity,[25],>28.5 µg/mL
COc1cc([C@@H]2c3cc(O)c(O)cc3C[C@H]3COC(=O)[C@@H]32)cc(OC)c1OC,IC50,Mus musculus [10],585 ng/mL
same,Ratio,[24],>43
same,Cytotoxicity,[25],>25 µg/mL
COc1cc([C@@H]2c3cc(O)c(O)cc3[C@@H](O)[C@H]3COC(=O)[C@H]23)cc(OC)c1OC,Body weight,Mus musculus [28],18.2 g
same,Body weight,Mus musculus [29],17 g
same,Body weight,Mus musculus [1],18.5 g
same,Body weight,Mus musculus [30],0.2 g
same,Body weight,Mus musculus [2],0.6 g
same,Body weight,Mus musculus [31],1 g
same,Body weight,Mus musculus [32],15.8 g
same,Body weight,Mus musculus [33],16.3 g
same,Activity,Mus musculus [34],170%
same,Activity,Mus musculus [35],144%
same,Activity,Mus musculus [36],100%
same,graft survival,Mus musculus [37],0.99 days
same,IC50,Mus musculus [10],0.015 ng/mL
same,SI,Mus musculus [38],0.81
same,SI,Mus musculus [39],0.88
same,SI,Mus musculus [40],1
same,Spleen weight,Mus musculus [41],4.05 g
same,Spleen weight,Mus musculus [42],4.4 g
same,Spleen weight,Mus musculus [43],5.02 g
same,Mean graft survival,Mus musculus [18],11 days
same,Mean graft survival,Mus musculus [19],11 days
same,Mean graft survival,Mus musculus [44],9.7 days
same,Weight change,Mus musculus [45],0%
same,Weight change,Mus musculus [46],1.9%
same,Weight change,Mus musculus [47],-3%
same,graft survival,Mus musculus [20],1.12 days
same,graft survival,Mus musculus [23],1.12 days
same,Ratio,[24],>23333333
same,Cytotoxicity,[25],>35 µg/mL
same,Body weight,Mus musculus [26],18.3 g
COc1cc([C@H]2C3=C(COC3=O)Cc3cc4c(cc32)OCO4)cc(OC)c1OC,IC50,Mus musculus [10],< 8.55 ng/mL
same,Ratio,[24],>3333
same,Cytotoxicity,[25],>28.5 µg/mL
COc1cc([C@@H]2c3cc(OC(C)=O)c(OC(C)=O)cc3[C@H](OC(C)=O)[C@H]3COC(=O)[C@H]23)cc(OC)c1OC,IC50,Mus musculus [10],60.7 ng/mL
same,Ratio,[24],>428
same,Cytotoxicity,[25],>26 µg/mL
COc1cc([C@@H]2c3cc(OC(C)=O)c(OC(C)=O)cc3[C@@H](OC(C)=O)[C@H]3COC(=O)[C@H]23)cc(OC)c1OC,IC50,Mus musculus [10],427 ng/mL
same,Ratio,[24],>67
same,Cytotoxicity,[25],>28.5 µg/mL
C/C=C/C[C@@H](C)[C@@H](O)[C@H]1C(=O)N[C@@H](CC)C(=O)N(C)CC(=O)N(C)[C@@H](CC(C)C)C(=O)N[C@@H](C(C)C)C(=O)N(C)[C@@H](CC(C)C)C(=O)N[C@@H](C)C(=O)N[C@H](C)C(=O)N(C)[C@@H](CC(C)C)C(=O)N(C)[C@@H](CC(C)C)C(=O)N(C)[C@@H](C(C)C)C(=O)N1C [CYCLOSPORINE],Mean graft survival,Mus musculus [48],9.8 days
same,Weight change,Mus musculus [49],2.7%
same,graft survival,Mus musculus [50],1 days
COc1cc([C@@H]2c3cc4c(cc3[C@@H](O)[C@H]3COC(=O)[C@H]23)OCO4)cc(OC)c1OC [EPIPODOPHYLLOTOXIN],IC50,Mus musculus [10],229 ng/mL
same,Ratio,[24],>284
same,Cytotoxicity,[25],>65 µg/mL
COc1cc([C@@H]2c3cc4c(cc3[C@H](O)[C@H]3COC(=O)[C@H]23)OCO4)cc(OC)c1OC [PODOFILOX],IC50,Mus musculus [10],< 128 ng/mL
same,Ratio,[24],>2187
same,Cytotoxicity,[25],280 µg/mL
